“Also recorded” adds a separate entry of the source.
Tests used:
intra-tumoral T cells = assay: Flow cytometry characterization of tumor immune infiltration; format: in vivo; details: gemcitabine treatment, mice with IL-6
Procedure: For the characterization of immune infiltration, tumors (from 2.5-month-old mice, treated with saline or gemcitabine for 2 weeks) were weighed, minced with gentleMACS Dissociator, and digested in 2 mL solution containing 1 mg/mL Liberase TL (Roche) and 0.2 mg/mL DNase I in DMEM media at 37° C. for 30 min. Spleens were weighed and filtered through a 100 μm mesh. Peripheral blood was collected with EDTA-tube, incubated with ACK lysis buffer for 5 min, and proceeded to mesh filtration. The tissue lysates were filtered through a 100 μm mesh before immunostaining. The subsequent single-cells suspension was stained with Fixable Viability Dye eFluor 780 (eBioscience) and antibodies specified in Table 2. The percentage positive cells were analyzed by FlowJo 10.1 and gated on CD45 positivity. Unstained, viability stain only, and single-stained beads (eBioscience) were used as compensation controls. Singlets were gated using forward scatter (FSC) height (FSC-H) and FSC area (FSC-A) event characteristics.

[1] = system: IL-6 and Acta2 (αSMA) transcripts; assay: qPCR and immunolabeling of IL-6 and αSMA in tumors; format: in vivo; details: tumors of KPPF mice following gemcitabine treatment
Procedure: Formalin-fixed, paraffin-embedded (FFPE) sections were processed for immunohistochemical (IHC) staining as previously described (Zheng et al., 2015), after Citrate based antigen retrieval (pH=6). For FAP staining in mouse FFPE sections citrate-based antigen retrieval was performed at pH 7.4. Staining for αSMA was performed with M.O.M. kit (Vector Laboratories) following the manufacturer's instructions. For all other staining, sections were incubated with biotinylated goat anti-rabbit and streptavidin HRP (Biocare Medical), each for 10 min. For all staining, counterstaining with hematoxylin was performed and DAB positivity was examined in ten visual fields at 200× magnification. […] The images were quantified for positive area using NIH ImageJ analysis software (αSMA, CD31, CK19, cleaved caspase-3, Ki67, MTS, phospho-Akt, phospho-ERK1/2, phospho-Stat3). For αSMA and FAP double immunofluorescence in human FFPE sections, secondary anti-sheep Alexa Fluor 488 and anti-mouse Alexa Fluor 534 antibodies were incubated for 30 min at RT. […]
Gene expression analyses and global gene expression profiling. […] The expression level of detected genes was normalized to that of Gapdh housekeeping gene. […] Primer sequences for detected genes are listed below. […]

[2] = system: PDAC tumors lacking p53 (KPPF); assay: Survival of PDAC genetically engineered mice under treatment (Kaplan-Meier, log rank); format: in vivo
From the text: Mice. FSF-Kras^G12D/+ (Schonhuber et al., 2014), Pdx1-Flp (Schonhuber et al., 2014), Trp53^frt/+ (Lee et al., 2012), LSL-Kras^G12D/+ (Hingorani et al., 2005), Pdx1-Cre (Hingorani et al., 2005), αSMA-Cre (LeBleu et al., 2013), αSMA-RFP (LeBleu et al., 2013), Rosa26-loxP-Stop-loxP-YFP (Ozdemir et al., 2014), Tgfbr2^loxP/loxP (Ijichi et al., 2006), and IL-6^loxP/loxP (Quintana et al., 2013) mouse strains were previously documented. The Rosa26-CAG-loxP-frt-Stop-frt-FireflyLuc-EGFP-loxP-RenillaLuc-tdTomato (referred to as R26^Dual), FSF-Kras^G12D/+, Pdx1-Flp, and Trp53^frt/+ strains were kindly provided by D. Saur, and the R26R-Brainbow2.1/Confetti (referred to as R26^Confetti) strain was purchased from Jackson Laboratory (Stock 013731). The IL-6^−/− strain was generated by crossing the IL-6^loxP/loxP strain with CMV-Cre strain (Jackson Laboratory; Stock 006054). The FAP-TK transgenic strain was newly generated: a 5 kb sequence flanking the FAP promoter and partial Exon 1 (Ex1) was cloned into pORF-HSV1-TK vector (Invivogen) using NotI and AgeI. The sequence-confirmed FAP-TK construct was released from the vector using NotI and SwaI before purification and injection into fertilized eggs. The transgenic mice were generated on the C57Bl/6 genetic background. These mice were bred onto PDAC GEM or implanted orthotopically with 689KPC cancer cells, as previously described (Kamerkar et al., 2017). Mice were maintained on a mixed genetic background and both male and female mice were evaluated. Mice were given gemcitabine (G-4177, LC Laboratories) intraperitoneally (i.p.) twice per week at 40 mg/kg of body weight. Gemcitabine treatment was initiated at 35 days of age. Ganciclovir (GCV; sud-gcv, Invivogen) was administered i.p. daily at 50 mg/kg of body weight ([…]). GCV was administered to PKT mice at 28 to 30 days of age, and to PKP mice at 50-51 days of age. Some of the tissues analyzed from the PKT;αSMA-TK GEM were from mice that were previously published (Ozdemir et al., 2014). […]

[3] = system: phospho-Stat3, phospho-ERK1/2, phospho-Akt; assay: Immunohistochemistry for phospho-Stat3, phospho-ERK1/2 and phospho-Akt in tumors; format: in vivo, mice
Procedure: (§1) Formalin-fixed, paraffin-embedded (FFPE) sections were processed for immunohistochemical (IHC) staining as previously described (Zheng et al., 2015), after Citrate based antigen retrieval (pH=6). For FAP staining in mouse FFPE sections citrate-based antigen retrieval was performed at pH 7.4. Staining for αSMA was performed with M.O.M. kit (Vector Laboratories) following the manufacturer's instructions. For all other staining, sections were incubated with biotinylated goat anti-rabbit and streptavidin HRP (Biocare Medical), each for 10 min. For all staining, counterstaining with hematoxylin was performed and DAB positivity was examined in ten visual fields at 200× magnification. […] The images were quantified for positive area using NIH ImageJ analysis software (αSMA, CD31, CK19, cleaved caspase-3, Ki67, MTS, phospho-Akt, phospho-ERK1/2, phospho-Stat3). For αSMA and FAP double immunofluorescence in human FFPE sections, secondary anti-sheep Alexa Fluor 488 and anti-mouse Alexa Fluor 534 antibodies were incubated for 30 min at RT. For αSMA and FAP IHC on FAP-TK and control tumor sections, immunoreactive score (IRS) were obtained from the sum of distribution and intensity scores for each section, established on a scale of 1 to 4 (Meyerholz & Beck, 2018).

PDAC tumors (KPPF GEM) [4] = assay: Immunohistochemistry/staining of pancreas sections for CD31, Ki67, cleaved caspase 3 and MTS; format: in vivo, mice
Procedure: as §1
Histopathological Scoring. Mouse tissues were fixed in 10% neutral buffered formalin, embedded in paraffin, and sectioned at 5 μm thickness. Sections were processed for haematoxylin and eosin (H&E) staining and/or Masson's trichrome staining (MTS) using Gomori's Trichome Stain Kit (38016SS2, Leica Biosystems). Histopathological assessments were conducted in a blinded fashion by scoring H&E-stained sections for relative percentages of the listed histopathological phenotypes. Tumor scores for orthotopic tumors were attributed on a scale from 1 (minor involvement) to 4 (extensive involvement), which evaluated on H&E sections of the entire pancreas the relative tumor involvement. Microscopic metastases were examined in H&E-stained tissue sections of the liver and lung. Positivity (one or more lesions in one tissue) was confirmed by CK19 staining. Images were obtained with a Leica DM 1000 LED microscope and an MC120 HD Microscope Camera with Las V4.4 Software (Leica).

PDAC tumors (KPPF GEM) [5] = assay: Histopathological scoring and tumor burden of pancreas tumors; format: in vivo; details: gemcitabine in KPPF;IL-6smaKO vs KPPF mice
From the text: Mice. FSF-Kras^G12D/+ (Schonhuber et al., 2014), Pdx1-Flp (Schonhuber et al., 2014), Trp53^frt/+ (Lee et al., 2012), LSL-Kras^G12D/+ (Hingorani et al., 2005), Pdx1-Cre (Hingorani et al., 2005), αSMA-Cre (LeBleu et al., 2013), αSMA-RFP (LeBleu et al., 2013), Rosa26-loxP-Stop-loxP-YFP (Ozdemir et al., 2014), Tgfbr2^loxP/loxP (Ijichi et al., 2006), and IL-6^loxP/loxP (Quintana et al., 2013) mouse strains were previously documented. The Rosa26-CAG-loxP-frt-Stop-frt-FireflyLuc-EGFP-loxP-RenillaLuc-tdTomato (referred to as R26^Dual), FSF-Kras^G12D/+, Pdx1-Flp, and Trp53^frt/+ strains were kindly provided by D. Saur, and the R26R-Brainbow2.1/Confetti (referred to as R26^Confetti) strain was purchased from Jackson Laboratory (Stock 013731). The IL-6^−/− strain was generated by crossing the IL-6^loxP/loxP strain with CMV-Cre strain (Jackson Laboratory; Stock 006054). […] Mice were maintained on a mixed genetic background and both male and female mice were evaluated. […] Some of the tissues analyzed from the PKT;αSMA-TK GEM were from mice that were previously published (Ozdemir et al., 2014). […]
Histopathological Scoring. […] Tumor scores for orthotopic tumors were attributed on a scale from 1 (minor involvement) to 4 (extensive involvement), which evaluated on H&E sections of the entire pancreas the relative tumor involvement. […]

[6] = gemcitabine with loss of IL-6 from αSMA+ CAFs (KPPF;IL-6smaKO)
[7] = tumors of KPPF mice treated with gemcitabine
[8] = gemcitabine in mice with αSMA+ CAFs-specific loss of IL-6, vs controls

Nc1ccn([C@@H]2O[C@H](CO)[C@@H](O)C2(F)F)c(=O)n1 [gemcitabine]
intra-tumoral T cell frequencies (intra-tumoral T cells): minimally impacted | IL-6 transcript levels and positive cells [1]: elevated | αSMA transcript levels and αSMA+ CAFs [1]: elevated | overall survival ([2]; KPPF mice, gemcitabine 40 mg/kg i.p. twice per week, vs untreated KPPF mice): no benefit | overall survival ([2]; KPPF;IL-6smaKO mice (αSMA+ CAFs-specific loss of IL-6) treated with gemcitabine, vs KPPF mice treated with gemcitabine): increase in overall survival; also recorded: overall increase in survival | overall survival ([2]; KPPF;IL-6−/− mice (absent IL-6) treated with gemcitabine, vs KPPF mice treated with gemcitabine): increased overall survival; also recorded: overall increase in survival | gemcitabine-induced change in phosphorylated Akt [3, 6]: significantly attenuated | gemcitabine-induced change in phosphorylated ERK1/2 [3, 6]: significantly attenuated | gemcitabine-induced change in phosphorylated Stat3 [3, 6]: significantly attenuated | levels of phosphorylated Akt in cancer cells [3, 7]: elevated levels | levels of phosphorylated ERK1/2 in cancer cells [3, 7]: elevated levels | levels of phosphorylated Stat3 in cancer cells [3, 7]: elevated levels | cleaved caspase-3, indicative of apoptosis (PDAC tumors (KPPF GEM) [4]; gemcitabine concurrent with αSMA+ CAFs-specific loss of IL-6): further increased | cancer cell proliferation (PDAC tumors (KPPF GEM) [4]; [8]): did not significantly impact | tumor collagen deposition (PDAC tumors (KPPF GEM) [4]; [8]): did not significantly impact | tumor vasculature (PDAC tumors (KPPF GEM) [4]; [8]): did not significantly impact | cleaved caspase-3, indicative of apoptosis (PDAC tumors (KPPF GEM) [4]; mice treated with gemcitabine): elevated | tumor burden (PDAC tumors (KPPF GEM) [5]): reduced tumor burden | histopathology (PDAC tumors (KPPF GEM) [5]; moribund endpoint): improved histopathology
